# How the values were obtained:
# [1] = target: T1, recombinant human MAGL enzyme (Homo sapiens, UniProt Q99685); experiment: In vitro screening of activity on the recombinant human MAGL enzyme (4-NPA substrate, absorbance 405 nm); type: biochemical; conditions: substrate 4-NPA, room temperature, 30 minutes
# T1 construct: purchased Cayman Chemical 10007812
# T1 sequence (Q99685 1-303): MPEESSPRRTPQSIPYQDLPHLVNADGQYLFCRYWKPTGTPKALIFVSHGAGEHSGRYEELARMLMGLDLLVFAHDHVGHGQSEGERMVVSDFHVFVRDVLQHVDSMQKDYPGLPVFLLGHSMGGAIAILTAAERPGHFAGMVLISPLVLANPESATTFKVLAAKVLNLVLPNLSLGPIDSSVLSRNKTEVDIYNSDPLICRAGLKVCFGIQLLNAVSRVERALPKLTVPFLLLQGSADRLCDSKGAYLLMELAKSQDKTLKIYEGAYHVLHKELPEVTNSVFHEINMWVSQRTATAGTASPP
# Procedure: The compound 4-nitrophenyl acetate (4-NPA Merck-Sigma Aldrich, 8430750025) was used as a substrate for the recombinant human MAGL enzyme (Cayman Chemical, 10007812). IC50 values were generated in microplates containing 96 wells. The catalytic reaction was carried out at room temperature, at a final volume of 200 µL in 10 mM Tris buffer at pH 7.2 containing 1 mM EDTA and 0.1 mg/ml BSA. A total of 150 µL of 4-NPA 133.3 µM in ethanol was added to 10 µL of DMSO containing the appropriate amount of compound (500 - 0.00256 µM). The reaction began with the addition of 40 µL of the MAGL enzyme (11 ng/well). […] After the reaction continued for 30 minutes, the absorbance values were then measured using a Victor X3 (PerkinElmer®) microplate reader at a wavelength of 405 nm. Two other analyzes were also performed in parallel: one reaction without compounds and the second containing neither compound nor enzyme. […] The IC50 values were calculated from the experimental data (absorbance) through the construction of dose-response curves.
# [2] = target: T1, recombinant human MAGL enzyme; experiment: Enzymatic kinetics experiments with scalar concentrations of 4-NPA (Michaelis-Menten, mixed-model inhibition fit); type: biochemical; conditions: compound 1-0.125 µM, 4-NPA 15-1400 µM
# Procedure: In enzymatic kinetics experiments, compound 15 was tested in the presence of scalar concentrations of […]. It was added in staggered amounts (concentration range = 1-0.125 µM in DMSO) to a reaction mix containing staggered concentrations of 4-NPA (15-1400 µM in ethanol). Finally, the buffer solution containing the recombinant human MAGL enzyme (11 ng/well) was added. The enzymatic activity was measured at room temperature by recording the increase in absorbance corresponding to the increase in the concentration of […] using a Victor X3 microplate reader (PerkinElmer®). The absorbance was converted into enzymatic rate by making appropriate use of positive and negative controls. The experimental data were analyzed by […] regression analysis applying the inhibition fit of the mixed model (Fig. 1).
# [3] = target: T1, recombinant human MAGL enzyme; experiment: MAGL dilution assay with the recombinant human MAGL enzyme; type: biochemical; conditions: 20 µM vs 40X dilution (final 0.5 µM) vs 0.5 µM (Fig. 3)
# Procedure: […] The mixture containing the inhibitor and the enzyme was then diluted 40 times with the buffer solution. After 15 minutes of incubation, the reaction was started in a 160 µL aliquot with the addition of 40 µL of 4-NPA 500 µM in buffer and the enzyme activity was measured according to the procedure described above.
# The % of inhibition of the MAGL enzyme was calculated from the measured absorbance. The absorbance measured in the presence of only enzyme with vehicle and without compound was considered as absence of inhibition (positive control), while the absorbance measured in the wells with only vehicle without enzyme and without compound was considered as 100% inhibition (negative control). Intermediate absorbance values with respect to these two extremes indicate enzymatic inhibition and are calculated as the difference between the absorbance value in the well with the compound and the absorbance value of the negative control, all scaled as a percentage considering as the maximum value the negative control and minimum value of minimum inhibition the positive control.
# In dilution experiments, if compound 15 were an irreversible inhibitor, its inhibitory potency should not decrease upon dilution.
# [4] = test system: HCT116; experiment: Cell viability assay (CellTiter-Glo) HCT116; type: cell-based; conditions: Homo sapiens, HCT-116; cell viability after 96 hours; read-out: IC50 (µM, mean ± SD) HCT116
# Procedure: (§1) The following tumor cell lines, MDA-MB-231 (Cell Biolabs AKR-231), HCT116 (ATCC® CCL-247), CAOV3 (ATCC® HTB-75), OVCAR3 (ATCC® HTB-161) and SKOV3 (ATCC® HTB-77) were kept at 37 °C in a humidified atmosphere containing 5% CO2 according to the supplier. Cells (5 x 10^2) were plated in 96-well culture plates. The day after plating, the compounds were dissolved in DMSO and added at different concentrations to the medium (final DMSO concentration < 5%). The compounds were added to the cell culture at a concentration between 200 and 0.02 µM. Cell viability was measured after 96 hours with the CellTiter-Glo® Luminescent Cell Viability Assay kit in accordance with the supplier Promega (G7571) with a Tecan M1000 instrument. IC50 values were calculated from dose-response curves. The means were obtained from the triplicates (Table 2). Table 2. Cell viability inhibition activity (IC50, µM) of compound 15.
# [5] = test system: MDA-MB-231; experiment: Cell viability assay (CellTiter-Glo) MDA-MB-231; type: cell-based; conditions: Homo sapiens, cell viability after 96 hours, read-out: IC50 (µM, mean ± SD) MDA-MB-231
# Procedure: as §1
# [6] = test system: CAOV3; experiment: Cell viability assay (CellTiter-Glo) CAOV3; type: cell-based; conditions: Homo sapiens, Caov-3; cell viability after 96 hours; read-out: IC50 (µM, mean ± SD) CAOV3
# Procedure: as §1
# [7] = test system: OVCAR3; experiment: Cell viability assay (CellTiter-Glo) OVCAR3; type: cell-based; conditions: Homo sapiens, OVCAR-3; cell viability after 96 hours; read-out: IC50 (µM, mean ± SD) OVCAR3
# Procedure: as §1
# [8] = test system: SKOV3; experiment: Cell viability assay (CellTiter-Glo) SKOV3; type: cell-based; conditions: Homo sapiens, SK-OV-3; cell viability after 96 hours; read-out: IC50 (µM, mean ± SD) SKOV3
# Procedure: as §1
SMILES,IC50 [1] [µM],further results
"CCCCCCCCCCCCCC(=O)Nc1cc(-c2ccc(O)c(F)c2)ccc1O [Compound 8, N-(3'-Fluoro-4,4'-dihydroxy-[1,1'-biphenyl]-3-yl)tetradecanamide]",2.5 ± 0.4,
"CCCCCCC(=O)Nc1cc(-c2ccc(O)c(F)c2)ccc1O [Compound 3, N-(3'-Fluoro-4,4'-dihydroxy-[1,1'-biphenyl]-3-yl)eptanamide]",1.1 ± 0.1,
"CCCCCCCC(=O)Nc1cc(-c2ccc(O)c(F)c2)ccc1O [Compound 4, N-(3'-Fluoro-4,4'-dihydroxy-[1,1'-biphenyl]-3-yl)octanamide]",0.61 ± 0.03,
"CCCCCCCCCCCC(=O)Nc1cc(-c2ccc(O)c(F)c2)ccc1O [Compound 7, N-(3'-Fluoro-4,4'-dihydroxy-[1,1'-biphenyl]-3-yl)dodecanamide]",2.8 ± 0.3,
"CCCCCC(=O)Nc1cc(-c2ccc(O)c(F)c2)ccc1O [Compound 2, N-(3'-Fluoro-4,4'-dihydroxy-[1,1'-biphenyl]-3-yl)hexanamide]",3.2 ± 0.2,
"CCCCCCCCCCCCCCCC(=O)Nc1cc(-c2ccc(O)c(F)c2)ccc1O [Compound 9, N-(3'-Fluoro-4,4'-dihydroxy-[1,1'-biphenyl]-3-yl)palmitamide]",> 20,
"CCCCCCCCCC(=O)Nc1cc(-c2ccc(O)c(F)c2)ccc1O [Compound 6, N-(3'-Fluoro-4,4'-dihydroxy-[1,1'-biphenyl]-3-yl)decanamide]",1.1 ± 0.1,
"CCCCCCCCC(=O)Nc1cc(-c2ccc(O)c(F)c2)ccc1O [Compound 5, N-(3'-Fluoro-4,4'-dihydroxy-[1,1'-biphenyl]-3-yl)nonanamide]",2.9 ± 0.1,
"CCCCC(=O)Nc1cc(-c2ccc(O)c(F)c2)ccc1O [Compound 1, N-(3'-Fluoro-4,4'-dihydroxy-[1,1'-biphenyl]-3-yl)pentanamide]",7.6 ± 0.1,

# More lines, main results first:
IC50 [1] [µM],SMILES,further results
6.9 ± 0.4,"O=C(Nc1cc(-c2ccc(O)c(F)c2)ccc1O)c1ccccc1 [Compound 12, N-(3'-Fluoro-4,4'-dihydroxy-[1,1'-biphenyl]-3-yl)benzamide]",
1.1 ± 0.1,"O=C(CCCCc1ccccc1)Nc1cc(-c2ccc(O)c(F)c2)ccc1O [Compound 16, N-(3'-Fluoro-4,4'-dihydroxy-[1,1'-biphenyl]-3-yl)-5-phenylpentanamide]",
19.7 ± 1,"CC(C)C(=O)Nc1cc(-c2ccc(O)c(F)c2)ccc1O [Compound 10, N-(3'-Fluoro-4,4'-dihydroxy-[1,1'-biphenyl]-3-yl)isobutyramide]",
2 ± 0.1,"O=C(CCc1ccccc1)Nc1cc(-c2ccc(O)c(F)c2)ccc1O [Compound 14, N-(3'-Fluoro-4,4'-dihydroxy-[1,1'-biphenyl]-3-yl)-3-phenylpropanamide]",
1.9 ± 0.1,"O=C(Cc1cccc2ccccc12)Nc1cc(-c2ccc(O)c(F)c2)ccc1O [Compound 17, N-(3'-Fluoro-4,4'-dihydroxy-[1,1'-biphenyl]-3-yl)-2-(naphtalen-1-yl)acetamide]",
5.1 ± 0.5,"O=C(Cc1ccccc1)Nc1cc(-c2ccc(O)c(F)c2)ccc1O [Compound 13, N-(3'-Fluoro-4,4'-dihydroxy-[1,1'-biphenyl]-3-yl)-2-phenylacetamide]",
> 20,"CC(C)(C)C(=O)Nc1cc(-c2ccc(O)c(F)c2)ccc1O [Compound 11, N-(3'-Fluoro-4,4'-dihydroxy-[1,1'-biphenyl]-3-yl)pivalamide]",
0.34 ± 0.01,"O=C(CCCc1ccccc1)Nc1cc(-c2ccc(O)c(F)c2)ccc1O [Compound 15, N-(3'-Fluoro-4,4'-dihydroxy-[1,1'-biphenyl]-3-yl)-4-phenylbutanamide]",Ki [2]: 0.146 µM; Inhibition mechanism from percentage of inhibition after 40X dilution [3]: reversible inhibition; IC50 [4]: 14 ± 2 µM; IC50 [5]: 75 ± 6 µM; IC50 [6]: 34 ± 4 µM; IC50 [7]: 75 ± 4 µM; IC50 [8]: 16 ± 2 µM

# Source: patent EP3889132B1, “MONOACYLGLYCEROL LIPASE (MAGL) INHIBITORS” (Università di Pisa, priority 2020, dated 2021)
